Numbered stars: 1 amine (or outer) side, 2 acyl side, 3 side chain; on linkers, the order of the positions; unused ones are H or OH. Bridge positions count the residues as written; N and C are the ends. Square brackets hold non-standard residues; d marks the D form. Peptide text beside a SMILES is read from it. CO = O=C([*:1])[*:2]; Nlys = NCCCCNCC(=O)O
Assays:
[1] = human, in vivo; cited from earlier work
[2] = Single-dose toxicity: blood cell counting and biochemistry analyses; assay type: in vivo, C57BL/6 male mice
[3] = system: cyclooxygenase (COX) enzymes; experiment: SafetyScreen44 enzyme inhibition, cyclooxygenases; assay type: biochemical; conditions: 1 mM; Figure 6
Description: (§1) Screening of potentially significant off-target effects to binding and enzyme targets was performed via SafetyScreen44 offered by Eurofins Cerep-Panlabs. Visabron c (4–4) was tested at 1 and 0.1 mM. Compound binding was calculated as the percentage of inhibition of the binding of a radioactively labeled ligand specific for each target. The compound enzyme inhibitory effect was calculated as the percentage of inhibition of control enzyme activity. Results showing inhibition higher than 40% were considered to represent significant effects of the tested compound. Results showing inhibition lower than 25% as obtained with 0.1 mM Visabron c (4–4) were not considered significant and were mostly attributable to the variability of the signal around the control level. In each experiment, the respective reference compound was tested concurrently with visabron c (4–4), and the data were compared with historical values determined at Eurofins. The experiment was statistically accepted in accordance with the Eurofins validation standard operating procedure.

Lck kinase = target: T1, Lck kinase (Homo sapiens, UniProt P06239); experiment: SafetyScreen44 enzyme inhibition, Lck kinase; assay type: biochemical
T1 construct: purchased Eurofins Cerep-Panlabs (contract screen) SafetyScreen44
Description: as §1

SafetyScreen44 targets = experiment: SafetyScreen44 off-target panel (44 binding, enzymatic and transporter assays); conditions: 1 mM; threshold of 40% for binding competition; Figure 5
Description: as §1

Abl = target: T2, Abl (Homo sapiens, UniProt P00519); experiment: PhosphoSens CSox-based kinase assay, Abl; assay type: biochemical; conditions: 1 mM, but not 0.1 mM; Figure 7
T2 construct: purchased Carna 08-001
Description: (§2) Kinase activity was measured using the PhosphoSenstechnology (AssayQuant Technologies Inc., Marlborough, MA) as detailed in the Supporting Information. […]
(§3) Visabron c (4-4) safety by in vitro evaluation using PhosphoSens - CSox based kinase assays:
(§4) A powerful method was used to measure the activity of recombinant protein kinases using a homogeneous and continuous (kinetic) format, where the level of chelation-enhanced fluorescence (CHEF) that is directly proportional to the amount of phosphorylated, real-time sensors consisting of sulfonamido-oxine (Sox) chromophore, linked to a peptide or protein substrates of selective kinases 6. […]
(§5) Kinase activity measurements: Kinase activity was measured continuously using the PhosphoSens® technology (AssayQuant Technologies Inc., Marlborough, MA) according to the manufacturers’ recommendations. This one-step homogeneous assay format uses chelation -enhanced fluorescence via optimized substrate sensors containing the unnatural fluorogenic amino -acid Sox. […]
(§6) Final reaction conditions : Protein kinase activity was determined in 54 mM HEPES, pH 7.5, 1 mM ATP, 1.2 mM DTT, 0.012% Brij-35, 0.52 mM EGTA, 10 mM MgCl2, 1% glycerol, 0.2mg/ml BSA, and 15 μM Sox -based sensor. […]

C-Raf = target: T3, C-Raf (Homo sapiens, UniProt P04049, Y340D/Y341D); experiment: PhosphoSens CSox-based kinase assay, C-Raf; assay type: biochemical; conditions: 1 mM, but not 0.1 mM; Figure 7
T3 construct: purchased Thermo PV3805
Description: as §2, §3, §4, §5, §6

[4] = system: panel of 20 tyrosine protein kinases of immune cells; assay type: biochemical; conditions: concentration a hundred-fold higher than the IC50 for inhibition of α4β1 integrin (0.1 mM)
Description: as §2, §3, §4, §5, §6

[5] = blood 24 hours after i.v. 500 mg/kg, n=5

T1 sequence (P06239 whole entry): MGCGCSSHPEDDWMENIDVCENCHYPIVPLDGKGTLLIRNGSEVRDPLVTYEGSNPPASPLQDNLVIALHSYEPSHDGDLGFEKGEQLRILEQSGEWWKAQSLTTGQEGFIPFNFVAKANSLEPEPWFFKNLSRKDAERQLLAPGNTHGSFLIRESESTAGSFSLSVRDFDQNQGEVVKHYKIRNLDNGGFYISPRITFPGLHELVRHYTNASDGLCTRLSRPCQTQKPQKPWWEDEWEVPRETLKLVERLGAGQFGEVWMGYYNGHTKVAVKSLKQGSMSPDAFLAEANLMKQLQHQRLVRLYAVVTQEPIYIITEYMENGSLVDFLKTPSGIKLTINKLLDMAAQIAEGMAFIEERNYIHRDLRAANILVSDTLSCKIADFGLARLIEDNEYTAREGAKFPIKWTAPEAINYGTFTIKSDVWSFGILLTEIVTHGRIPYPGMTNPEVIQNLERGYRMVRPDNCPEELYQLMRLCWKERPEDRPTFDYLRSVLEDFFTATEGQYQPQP
T3 sequence (P04049 whole entry Y340D/Y341D): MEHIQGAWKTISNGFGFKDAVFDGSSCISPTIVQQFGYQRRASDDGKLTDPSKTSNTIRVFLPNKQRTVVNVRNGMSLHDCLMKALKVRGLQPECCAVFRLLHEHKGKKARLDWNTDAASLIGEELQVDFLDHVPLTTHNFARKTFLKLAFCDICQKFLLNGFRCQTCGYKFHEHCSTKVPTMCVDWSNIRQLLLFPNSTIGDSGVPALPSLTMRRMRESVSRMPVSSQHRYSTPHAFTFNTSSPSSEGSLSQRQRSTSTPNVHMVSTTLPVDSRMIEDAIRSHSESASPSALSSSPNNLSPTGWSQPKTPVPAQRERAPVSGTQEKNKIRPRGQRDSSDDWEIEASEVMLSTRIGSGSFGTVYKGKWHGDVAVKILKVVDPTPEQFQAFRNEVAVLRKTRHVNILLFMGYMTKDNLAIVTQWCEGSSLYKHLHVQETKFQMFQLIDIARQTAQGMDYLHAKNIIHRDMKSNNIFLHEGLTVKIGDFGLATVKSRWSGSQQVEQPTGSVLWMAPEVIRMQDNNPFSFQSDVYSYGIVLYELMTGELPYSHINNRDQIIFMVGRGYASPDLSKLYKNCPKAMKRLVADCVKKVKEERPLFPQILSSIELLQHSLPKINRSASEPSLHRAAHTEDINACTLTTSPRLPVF
T2 sequence (P00519 whole entry): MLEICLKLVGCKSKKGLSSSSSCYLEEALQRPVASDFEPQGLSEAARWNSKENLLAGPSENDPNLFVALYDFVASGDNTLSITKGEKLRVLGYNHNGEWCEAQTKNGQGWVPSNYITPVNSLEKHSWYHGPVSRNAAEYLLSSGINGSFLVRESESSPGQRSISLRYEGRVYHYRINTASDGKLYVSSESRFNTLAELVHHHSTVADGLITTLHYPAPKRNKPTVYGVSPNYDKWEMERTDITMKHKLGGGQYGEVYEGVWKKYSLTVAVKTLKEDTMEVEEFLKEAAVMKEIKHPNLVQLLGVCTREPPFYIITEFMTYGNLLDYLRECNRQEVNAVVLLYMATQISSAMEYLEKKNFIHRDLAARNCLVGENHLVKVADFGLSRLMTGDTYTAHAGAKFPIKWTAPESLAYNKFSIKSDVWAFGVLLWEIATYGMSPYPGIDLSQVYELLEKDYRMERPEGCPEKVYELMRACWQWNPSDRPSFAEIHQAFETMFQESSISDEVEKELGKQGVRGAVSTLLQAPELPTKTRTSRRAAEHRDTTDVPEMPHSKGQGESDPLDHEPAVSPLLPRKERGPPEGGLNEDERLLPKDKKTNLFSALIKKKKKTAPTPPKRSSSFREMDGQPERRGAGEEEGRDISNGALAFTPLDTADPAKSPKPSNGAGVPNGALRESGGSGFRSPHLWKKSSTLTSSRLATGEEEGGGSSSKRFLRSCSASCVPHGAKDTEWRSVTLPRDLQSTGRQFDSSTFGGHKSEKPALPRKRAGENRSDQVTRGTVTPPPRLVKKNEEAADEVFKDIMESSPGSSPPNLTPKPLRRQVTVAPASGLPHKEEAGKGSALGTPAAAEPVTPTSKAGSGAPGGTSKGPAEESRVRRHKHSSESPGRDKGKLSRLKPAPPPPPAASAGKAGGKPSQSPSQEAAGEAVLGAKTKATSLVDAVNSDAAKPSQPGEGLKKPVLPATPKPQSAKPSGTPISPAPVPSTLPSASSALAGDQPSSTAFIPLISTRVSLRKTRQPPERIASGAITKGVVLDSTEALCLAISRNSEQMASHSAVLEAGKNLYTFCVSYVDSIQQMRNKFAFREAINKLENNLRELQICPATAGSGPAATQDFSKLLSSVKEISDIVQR

Q: For “natalizumab: clinical-grade monoclonal antibody anti-α4β1 produced by Biogen Co. [reference compound]”, which “Multiple sclerosis patients with anti-natalizumab-neutralizing antibodies” value [1] is on record?
A: The value was 6–9%.

Q: And the “Patients with neutralizing antibodies toward natalizumab that cause loss of drug efficacy” value [1]?
A: Its value is “about 6%”.

Q: What does the source list for `CSCC[C@@H]1NC(=O)[C@H]([C@@H](C)O)NC(=O)CN(C(=O)[C@@H](N)CCCCN)CCCCNC(=O)NCCCCN(CC(=O)N[C@@H](CC(C)C)C(N)=O)C(=O)[C@H](CC(=O)O)NC(=O)[C@H](CC(C)C)NC1=O` [visabron c (4–4)] (H-K[Nlys]TMLD[Nlys]L-NH2; linker 2-7 via CO)?
A: Acute tolerability, single dose ([2]; 24 h after i.v. injection, C57BL/6 male mice): 500 mg/kg; Blood count and electrolytes vs control mice ([2]; 24 hours from i.v. injection, dose printed 250 mg/kg in this block): No significant differences; ALP [2, 5]: 84±7 U/L; ALT [2, 5]: 41±4 U/L; AST [2, 5]: 92±11 U/L; Albumin [2, 5]: 2.8±0.2 gr/dL; BUN [2, 5]: 14 ± 3.2 mg/dL; Calcium [2, 5]: 9.8 ± 1.2 mg/dL; Chloride [2, 5]: 105 ± 9.2 mmol/L; Cholesterol [2, 5]: 105 ± 8.6 mg/dL; Creatinine [2, 5]: 0.3 ± 0.07 mg/dL; Glucose [2, 5]: 279 ± 31 mg/dL; HCT [2, 5]: 45±2.5%; HGB [2, 5]: 14.8 ± 0.5 g/dL; MCH [2, 5]: 14.8 ± 0.6 pg; MCHC [2, 5]: 29 ± 1.3 g/dL; MCV [2, 5]: 48 ± 2.5 fL; MPV [2, 5]: 5 ± 0.9 fL; RBC [2, 5]: 9.0±0.9 m/ µL; RDW [2, 5]: 17.1±0.4%; WBC [2, 5]: 7.9±0.8 k/µL; Inhibition of cyclooxygenase (COX) enzymes [3]: moderately inhibited; Inhibitory effect on Lck (Lck kinase; 100 μM, data not shown): not observed; Inhibition of Lck kinase activity (Lck kinase; 1 mM, Figure 6): strongly inhibited; Interaction with the majority of the physiological targets (SafetyScreen44 targets): did not interact; inhibition at 1000 µM (Abl): 25 to 40%; inhibition at 1000 µM (C-Raf): 25 to 40%; Targeting of leukocyte tyrosine protein kinases [4]: did not target
